According to US20250129012A1, “ANTI-INFLAMMATORY AND ANALGESIC COMPOUNDS AND USE THEREOF” (JIANGSU ATOM BIOSCIENCE AND PHARMACEUTICAL CO., LTD., priority 2021, published 2025):
Like-named read-outs stand apart in the source and are kept apart here. Marks after values point to notes of the source that are not given here.

Tests used:
[1] = tested on: gouty arthritis in rats (urate crystals, left ankle joint); assay: Pharmacodynamics experiment A on gouty arthritis in rats: paw volume; format: in vivo, SD rats; conditions: for Paw volume: Mean ± SEM
Procedure: Compounds 2, 17, 26 and 27 were prepared by grinding with 0.5% CMC-Na into a suspension of the corresponding concentration (0.06 mg/mL) for gavage before administration, and the volume of administration was 10 mL/kg. […] Before use, 0.5% CMC-Na was used for grinding and prepared into a suspension of the corresponding concentration (0.06 mg/mL) for gavage, and the volume of drug administered was 10 mL/kg.
Each group of subjects was prepared into a suspension of the corresponding concentration, and the administration volume was 10 mL/kg.
(§1) The crystalline arthritis model was prepared by intra-articular injection of urate crystals (40 mg/mL, in the left ankle joint of each rat). Different doses of the test drug were given separately by gavage administration. The day of administration was defined as day 1 of the experiment, and the drug was administered once a day for 10 consecutive days (pre-administration of the drug for 7 days prior to modeling, modeling on day 8, and continuation of the drug for 3 days). The experiment ended on day 10.
Paw volume was measured before administration, before urate injection, and 2, 4, 8, 10, 24, and 48 h after injection.
The data obtained from the experiment were statistically analyzed using IBM SPSS Statistics 22.0. All measurements were expressed as Mean±S.E.M s. The data were analyzed using SPSS 22.0 statistical software and variance chi-square test was performed on the parameters.

[2] = In vivo pharmacokinetics in SD rats; conditions: for AUC(0-inf): read-out: AUCINF; for MRT inf: read-out: MRTINF
How it was run: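 SD rats received compound intravenously (0.5 mg/mL solution) or by oral gavage (1 mg/mL, fasted overnight), both formulated in DMSO/Solutol HS15/saline. Plasma compound concentrations were measured by LC/MS/MS. Non-compartmental parameters were then calculated.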

[3] = death 35 h after ingestion; cited from earlier work
[4] = tested on: IL-6; assay: Inflammatory factor experiment A: IL-6 in gouty arthritis rats; format: in vivo, SD rats; conditions: synovial tissue of knee joints; dose 0.6 mg/kg gavage; day 10
Procedure: Compounds 14, 17 and 26 were prepared by grinding with 0.5% CMC-Na before administration and into a suspension for gavage at the corresponding concentration (0.06 mg/mL), with a dosage volume of 10 mL/kg. Colchicine, purchased from Sun Chemical Technology (Shanghai) Co., Ltd. with batch no. 49ETRRAS, and was prepared by grinding with 0.5% CMC-Na before administration and into a suspension for gavage at the corresponding concentration (0.06 mg/mL), with a dosage volume of 10 mL/kg.
The compounds in each group were prepared into a suspension of the corresponding concentration, and the dosage volume was 10 mL/kg.
as §1, with “(40 mg/mL” for “(40 mg/mL,”, “test compounds” for “test drug”, “the compounds were” for “the drug was”, “10. […]” for “10.”

[5] = tested on: novel coronavirus infection; conditions: cited from earlier work
[6] = Sprague-Dawley, rat, in vivo, po, Gavage - 10 mg/kg
[7] = Sprague-Dawley, rat, in vivo, Intravenous injection - 1 mg/kg
[8] = 4,159 patients with nasopharyngeal nucleic acid test

COc1cc2c(c(OC)c1OC)-c1ccc(OC)c(=O)cc1[C@@H](NC(C)=O)CC2 [colchicine, reference compound]
Paw volume versus model group, in words ([1]; 0.6 mg/kg gavage, time points after modeling): significantly smaller than those in the model group at 2 h, 4 h, 8 h, 10 h, and 48 h after modeling
Paw volume ([1]; 2 h after modeling, 0.6 mg/kg gavage): 2.44 ± 0.02*** cm^3
Paw volume ([1]; 4 h after modeling, 0.6 mg/kg gavage): 2.45 ± 0.03** cm^3
Paw volume ([1]; 8 h after modeling, 0.6 mg/kg gavage): 2.44 ± 0.04*** cm^3
Paw volume ([1]; 10 h after modeling, 0.6 mg/kg gavage): 2.46 ± 0.04** cm^3
Paw volume ([1]; 24 h after modeling, 0.6 mg/kg gavage): 2.46 ± 0.05 cm^3
Paw volume ([1]; 48 h after modeling, 0.6 mg/kg gavage): 2.24 ± 0.03*** cm^3
Paw volume ([1]; before modeling, 0.6 mg/kg gavage once a day): 2.18 ± 0.03 cm^3
F ([2]; Gavage - 10 mg/kg, calculated by AUCINF): 8.73%
AUC(0-inf) [2, 6]: 735 ng·h/mL
Cmax ([2]; Sprague-Dawley, rat, in vivo, po, Gavage - 10 mg/kg, read-out: Cmax): 175 ng/mL
MRT inf [2, 6]: 25.7 h
Tmax ([2]; Sprague-Dawley, rat, in vivo, po, Gavage - 10 mg/kg, read-out: Tmax): 0.417 h
AUC(0-inf) [2, 7]: 567 ng·h/mL
clearance ([2]; Sprague-Dawley, rat, in vivo, Intravenous injection - 1 mg/kg, read-out: CL (converted)): 31.8 mL/min/kg
MRT inf [2, 7]: 11 h
Vd ([2]; Sprague-Dawley, rat, in vivo, Intravenous injection - 1 mg/kg, read-out: VSS): 17.6 L/kg
Dose with reported death cases [3]: 0.4 mg/kg
Decreased IL-6 percentage % [4]: 107.14%
Reduction of hospital admissions [5, 8]: 25%
Reduction of need for respiratory equipment [5, 8]: 50%
Reduction of number of deaths [5, 8]: 44%
Lower risk of hospitalization or death compared with placebo ([5]; 4,488 non-hospitalized patients): 21%
